Laboratory results: US20070293539A1, “Methods for the treatment of synucleinopathies” (priority 2004, published 2007)
Entries after “also recorded” stand apart in the source; their conditions may differ.

Legend:
[1] = taken in a low dose; cited from earlier work
[2] = tested on: α-synuclein; test: α-synuclein degradation assay in transfected COS-7 cells, quantitative Western blotting; assay type: cell-based
Source text: Plasmids: C220S cDNA was generated by PCR site-specific mutagenesis. For the PCR, the 5′ primer is uchforw SEQ ID NO: 1 ([…]), and 3′ primer is uchc220s SEQ ID NO:2 (CTAAGA […]). Wt UCH-L1 served as the template. The PCR fragment was inserted into pcDNA vector. For S18YC220S mutant, S18Y UCH-L1 served as the template in PCR. For the FLAG tagged UCH-L1, the 5′ primer is FLAGuchforw SEQ ID NO: 3 ([…] CGATGGAG), and the 3′ primer is uchrev SEQ ID NO: 4 ([…]). Wt UCH-L1 or C220S served as the template. PCR fragment was purified and inserted into pcDNA vector. For the FLAG tagged UCH-L3, the 5′ primer is L3HindIII SEQ ID NO: 5 (CTAAAGCTTATGGACTAC […]), the 3′ primer is L3XhoISAA SEQ ID NO: 6 ([…]). […] After 24 hours of incubation, the cells were lysed with Tris buffer (50 mM Tris, 2% SDS, 0.1% NP-40), and subjected to SDS-PAGE, followed by quantitative Western blotting.
(§1) Western Blotting: Following transfer of SDS gels onto NC membrane, all membranes were blocked with 5% non-fat milk in TBST (50 mM Tris-HCl pH7.4, 150 mM NaCl, 0.1% Tween 20), and incubated with primary antibody overnight with 1% BSA in TBST, washed three times with TBST, and incubated with horseradish peroxidase-conjugated secondary antibody for 1 hour (Promega). Bound antibodies were detected using enhanced chemiluminascence (NEM). […]

[3] = tested on: UCH-L1; test: 2D electrophoresis and Western blotting of membrane-bound and cytosolic UCH-L1 in SH-SY5Y cells; assay type: cell-based; conditions: compared to cells treated with DMSO
Protocol: 2D electrophoresis: For the isolation of total cellular protein, cultured SH-SY5Y cells maintained as described above were rinsed with ice-cold PBS. Cells were lysed in 1 ml dSDS buffer (50 mM Tris-HCl, pH 8.0 0.1% SDS) supplemented with protease inhibitor cocktail. Lysates were boiled for 3 min, and were treated with Dnase and Rnase as described. Lysates were precipitated with ice-cold acetone for at least 2 hours, and pellets were resuspended in 2D sample buffer (8M urea, 0.5% CHAPS, 0.2% DTT, 0.5% IPG buffer, 0.002% bromophenol blue). 2D electrophoresis was carried out according to manufacture's protocol (Amersham Life Science). 7 cm pH 4-7 strips were used. For SH-SY5Y membrane fraction, culture SH-SY5Y cells were rinsed with cold PBS and harvested with lysis buffer (50 mM Tris-HCl, pH 8.0, 1 mM ZnAc2, 250 mM sucrose). Lysate was passed through 25G needles for several times and spun at 1000 g for 5 min. […]
as §1

[4] = tested on: UCH-L1; test: total amount and turnover of UCH-L1 in SH-SY5Y cells (pulse-chase experiment not shown); assay type: cell-based
[5] = tested on: α-synuclein; test: α-synuclein accumulation in SH-SY5Y cells infected with α-synuclein-expressing adenovirus, Western blotting normalized against actin; assay type: cell-based
Protocol: (§2) Viral Infection: Viral infection and MTT assay in SH-SY5Y cells: The viruses were amplified and purified according to the published procedure. SH-SY5Y cells were grown on 100 mm petri-dishes and induced with 100 nM RA for 3-5 days before the virus infection with M.I.O at 75. Viruses were diluted with DPBS to desired M.I.O. After four hours of incubation, 10 ml growth medium was added. On the second day, cells were splitted into 96-well plates and treated with compounds for next 48 hours. The growth medium in each well was replaced with growth medium with 5 ug/ml MTT. Medium was removed after three hours incubation, and 200 ul isopropyl (0.04N HCl) was added into each well. The signal was read at 570 nm.
Western Blotting: Following transfer of SDS gels onto NC membrane, all membranes were blocked with 5% non-fat milk in TBST (50 mM Tris-HCl pH7.4, 150 mM NaCl, 0.1% Tween 20), and incubated with primary antibody overnight with 1% BSA in TBST, washed three times with TBST, and incubated with horseradish peroxidase-conjugated secondary antibody for 1 hour (Promega). Bound antibodies were detected using enhanced chemiluminascence (NEM).
Since α-synuclein neurotoxicity is dose-dependent, it follows that accumulation of α-synuclein, caused by UCH-L1 farnesylation, should promote its toxicity. […] (F) Cell viability was assessed by the amount of metabolic activity using MTT assay. […]

[6] = tested on: SH-SY5Y cells infected by α-synuclein-expressing adenovirus; test: α-synuclein toxicity in SH-SY5Y cells infected by α-synuclein-expressing adenovirus (Trypan blue viable cell counting, MTT assay); assay type: cell-based; conditions: SH-SY5Y cells overexpressing α-synuclein via adenoviral vector, compared to DMSO
Protocol: as §2
Viable cell counting: At stated time poins, SH-SY5Y cells were trypsinized with 100 ul trypsin-EDTA for 1 minute and neutralized with 400 ul growth medium. Cell suspension was made up by mixing 0.2 ml of cells in growth medium, 0.3 ml of HBSS and 0.5 ml of 0.4% Trypan Blue solution. Viable cell numbers were counted by standard cell counting chamber.
Since α-synuclein neurotoxicity is dose-dependent, it follows that accumulation of α-synuclein, caused by UCH-L1 farnesylation, should promote its toxicity. […] These cells express high endogenous levels of UCH-L1. […] The unit of y-axis is 10^5/ml. (F) Cell viability was assessed by the amount of metabolic activity using MTT assay. […]

[7] = human, in vivo; cited from earlier work

C#CCN(C)[C@H](C)Cc1ccccc1 [selegiline]
delay of the need for levodopa [1]: roughly three

COC(=O)[C@H](CCSC)NC(=O)c1ccc(NC[C@@H](N)CS)cc1-c1ccccc1 [FTI-277]
synuclein level ([2]; COS-7 cells): lowers synuclein level | amount of cytosolic UCH-L1 [3]: without affecting | amount of membrane bound UCH-L1 [3]: significant decrease; also recorded: decreased the amount of the membrane-associated species; also recorded: reducing the amount of membrane-associated protein | total amount of UCH-L1 [4]: reduced the total amount of UCH-L1 | rate of turnover of UCH-L1 ([4]; pulse-chase experiment not shown): increased its rate of turnover | amount of α-synuclein [5]: reducing the amount of α-synuclein accumulation; also recorded: reduced the amount of α-synuclein | α-synuclein toxicity (loss of cells) [6]: inhibits synuclein toxicity; also recorded: rescued α-synuclein toxicity; also recorded: significantly decreased loss of cells

N[C@@H](Cc1ccc(O)c(O)c1)C(=O)O [levodopa]
patients that do not respond [7]: About 15%

CC(=O)N[C@@H](CSC(=O)[C@]1([C@@H](O)C(C)C)NC(=O)[C@H](C)[C@@H]1O)C(=O)O [lactacysteine]
accumulation of α-synuclein ([2]; transfected COS-7 cells, 16 kDa α-synuclein normalized against actin): 100%
